Laboratory results as given in patent US20140249218A1, “ADMINISTRATION OF INGENOL MEBUTATE” (LEO Laboratories Limited, priority 2013, published 2014).

Legend:
[1] = assay type: physicochemical; details: room temperature
Procedure: For the experiment, a slurry mixture of forms A, X and Y in cyclohexane was stirred for about 48 hours at room temperature. After about 24 hours, the complete sample was transformed into form A (see FIG. 17).
A polymorphic crystalline form of the compound of Formula 1 was characterized and identified as form A″ The stability of form A at room temperature was confirmed by the slurry experiments at room temperature.

[2] = Conversion of solvate forms upon heating; assay type: physicochemical
[3] = Stress milling (mortar and pestle); assay type: physicochemical; details: manual grinding about 2, 5 and 10 mins
Procedure: Crystalline ingenol mebutate is subjected to stress milling to investigate its physico-chemical stability. In the study, crystalline ingenol mebutate is manually ground using a mortar and pestle for durations of about 2, about 5 and about 10 mins.
Crystalline ingenol mebutate was subjected to stress milling (manually using a mortar and pestle) for durations of about 2, about 5 and about 10 mins.

[4] = system: squamous cell carcinoma and melanoma tumor; test: Mouse xenograft squamous cell carcinoma and melanoma tumor models, topical; assay type: in vivo
tumor cells = test: Direct cytotoxic effect at high concentrations; assay type: cell-based; details: e.g., 100 μg/mL
Text: (§1) Ingenol mebutate is a pleiotropic effector that exerts a direct cytotoxic effect on tumor cells and modulates Protein Kinase C (PKC) isoforms.

[5] = system: Syrian hamster embryo (SHE) cell; test: Syrian hamster embryo (SHE) cell transformation assay; assay type: cell-based
Procedure: (§2) Carcinogenic evaluations of ingenol mebutate have not been conducted. Ingenol mebutate was not mutagenic in an in vitro Ames test, mouse lymphoma assay, and in vivo rat micronucleus test. Ingenol mebutate was positive in the Syrian hamster embryo (SHE) cell transformation assay at concentrations≧0.1 μg/mL.

rabbits = test: Teratogenicity study, intravenous route, rabbits; assay type: in vivo, rabbit; details: rabbits
Procedure: (§3) Teratogenicity studies with ingenol mebutate were performed by the intravenous route in rats and rabbits.
(§4) In rats, ingenol mebutate was not associated with fetal developmental effects at doses up to 5 μg/kg/day (30 μg/m^2/day).
(§5) The fetal NOAEL was 1 μg/kg/day (12 μg/m^2/day).

[6] = Teratogenicity study, intravenous route, rabbits; assay type: in vivo, rabbit; details: female, rabbit, in vivo, 12 μg/m^2/day, read-out: fetal NOAEL
Procedure: as §3, §4, §5

rat = test: In vivo rat micronucleus test
Procedure: as §2

skin = test: UV irradiation studies (photoirritation, photoallergy); assay type: in vivo; details: ingenol mebutate 0.01%, single and multiple applications
Text: Studies have been conducted to assess the effects of UV irradiation on the skin following single and multiple applications of ingenol mebutate, 0.01%. […] However, excessive exposure to sunlight (including sunlamps and tanning beds) should be avoided or minimized during use of TRADEMARK Gel due to the nature of the disease.

[7] = Skin permeation of [3H]-PEP005, Wistar rat split-thickness skin; assay type: in vitro ADME, Wistar (WI) rat
Procedure: (§6) The rate and extent of absorption of [^3H]-ingenol mebutate over a 24 h exposure period following topical application of the gel to Wistar (WI) rat, Sprague Dawley (SD) rat, Göttingen mini-pig and human split-thickness skin was also assessed.

mouse lymphoma = test: Mouse lymphoma assay; assay type: cell-based
Procedure: as §2

[8] = Skin permeation of [3H]-PEP005, human split-thickness skin; assay type: in vitro ADME; details: gel ca 0.05% w/w
Procedure: as §6

[9] = Skin permeation of [3H]-PEP005, Sprague Dawley rat split-thickness skin; assay type: in vitro ADME, Sprague Dawley (SD) rat
Procedure: as §6

[10] = system: human cytochrome P450 isoforms; test: In vitro cytochrome P450 inhibition/induction; assay type: in vitro ADME
receptors and enzymes = test: Off-target activity in various in vitro assays
rats = test: Teratogenicity study, intravenous route, rats; assay type: in vivo, rat; details: 5 μg/kg/day = 30 μg/m^2/day
Procedure: as §3, §4

human endothelial cells = test: PKC dependent activation of endothelial cells, neutrophil adhesion in vitro; assay type: cell-based; details: e.g., 10 to 100 ng/mL
Text: as §1

In vitro Ames test = assay type: cell-based
Procedure: as §2

mouse skin = test: Application to mouse skin in vivo, inflammatory mediators; details: subclinical concentrations
tumors = test: Mouse xenograft models, intratumoral injection; assay type: in vivo
skin cancer cells = details: via rapid mitochondrial disruption and primary necrosis; normal cells less sensitive; cited from earlier work
[11] = system: isolated human keratinocytes; test: Exposure of isolated keratinocytes in vitro; assay type: cell-based; details: subclinical concentrations
[12] = Skin permeation of [3H]-PEP005, mini-pig split-thickness skin; assay type: in vitro ADME, Göttingen mini-pig
Procedure: as §6
The maximum hourly flux was 0.44, 0.80, 2.09, and 6.12 ng equiv./cm^2/h for human, mini-pig, SD and WI rat skin, respectively. […] The flux profile for mini-pig was dissimilar to the other species/strains. […] The other three species/strains had similar flux profiles with lag times of ca 1, 2 and 3 h for the human, SD and WI rat skin, respectively. This was followed by steady state flux from 4-24 h, 6-24 h and 8-24 h, respectively. Steady state flux was 0.39, 2.01 and 5.87 ng equiv./cm^2/h for the human, SD and WI rat skin, respectively. […] These differences with the mini-pig group compared to the other three skin groups may have been attributed to the preparation of the split-thickness skin. Due to the hair follicle depth in mini-pig skin, split-thickness skin was prepared at a depth of ca […] compared to ca […] for the other skin groups. Therefore, the thicker layer of dermis for the mini-pig skin may have acted as a reservoir for [3H]-PEP005 prior to partitioning into the receptor fluid.

[13] = Wistar Rat skin, gel ca 0.05% w/w
[14] = Sprague Dawley Rat skin, gel ca 0.05% w/w
[15] = WI rat skin vs human skin, % applied dose
[16] = SD rat skin vs human skin, % applied dose
[17] = Mini-Pig skin, gel ca 0.05% w/w, NO = not observed
[18] = mini-pig skin vs human skin, % applied dose
[19] = mini-pig skin, gel ca 0.05% w/w

Which results are given for C/C=C(/C)C(=O)O[C@H]1C(C)=C[C@]23C(=O)[C@@H](C=C(CO)[C@@H](O)[C@]12O)[C@H]1[C@@H](C[C@H]3C)C1(C)C [form X, ingenol mebutate]?
time to conversion to form A in slurry ([1]; slurry of forms A, X and Y in c-hexane): about 24 hours; behaviour upon heating [2]: converted into form A upon heating

With C/C=C(/C)C(=O)O[C@H]1C(C)=C[C@]23C(=O)[C@@H](C=C(CO)[C@@H](O)[C@]12O)[C@H]1[C@@H](C[C@H]3C)C1(C)C [form A, ingenol mebutate] as the compound, how does the “physico-chemical stability on milling” value [3] read?
The value was “remained unaltered”.

What about the “relative stability of forms A, X and Y” value [1] of the same compound?
The value was “most stable form at room temperature”.

For C/C=C(/C)C(=O)O[C@H]1C(C)=C[C@]23C(=O)[C@@H](C=C(CO)[C@@H](O)[C@]12O)[C@H]1[C@@H](C[C@H]3C)C1(C)C [ingenol mebutate, (1 aR,2S,5R,5aS,6S,8aS,9R,10aR)-5,5a-dihydroxy-4-(hydroxymethyl)-1,1,7,9-tetramethyl-11-oxo-1a,2,5,5a,6,9,10,10a-octahydro-1H2,8a-methanocyclopenta[a]cyclopropa[e]cyclodecen-6-yl(2Z)-2-methylbut-2-enoate], which effect on tumors [4] is on record?
Its effect on tumors is “removes tumors and prevents tumor recurrence”.

And the “effect on cells at high concentrations” value (tumor cells)?
Its value is “induces mitochondrial swelling and loss of cell membrane integrity leading to cell death”.

What about the “concentrations positive in SHE cell transformation assay” value ([5]; Syrian hamster, Syrian hamster embryo (SHE) cells) of the same compound?
The value was at least 0.1 µg/mL.

What about the cell transformation result ([5]; concentrations≧0.1 μg/mL) of the same compound?
Its cell transformation result is “positive”.

What about the “doses at which maternal toxicity (increased breathing) was observed” value (rabbits; 1 μg/kg/day = 12 μg/m^2/day) of the same compound?
Its value is at least 1 µg/kg/day.

What about the “doses with slight increase in incidence of incompletely ossified cervical vertebral arches” value (rabbits; 2 μg/kg/day = 24 μg/m^2/day) of the same compound?
Its value is at least 2 µg/kg/day.

And the embryo-fetal findings (rabbits; 4 μg/kg/day (48 μg/m^2/day), marginal, not statistically significant)?
Its embryo-fetal findings is “slight increase in embryonic deaths, an increase in jugular fusion to the maxilla and a variation in the origin of arteries arising from the aortic arch”.

And the NOAEL [6]?
The NOAEL was 0.001 mg/kg/day.

What about the mutagenicity (rat) of the same compound?
The mutagenicity was “not mutagenic”.

What about the “photoirritation or photoallergy effects” value (skin) of the same compound?
The value was “did not demonstrate any potential for photoirritation or photoallergy effects”.

And the “Lag Time” value [7, 13]?
Its value is 3 h.

What about the “Period of Steady State Flux” value [7, 13] of the same compound?
The value was 8.24 h.

What about the “Steady State Flux” value [7, 13] of the same compound?
The value was 5.87 ng equiv./cm^2/h.

And the mutagenicity (mouse lymphoma)?
Its mutagenicity is “not mutagenic”.

And the “Lag Time” value [8]?
Its value is 1 h.

What about the “Period of Steady State Flux” value [8] of the same compound?
The value was 4.24 h.

And the “Steady State Flux” value [8]?
The value was 0.39 ng equiv./cm^2/h.

What about the “Lag Time” value [9, 14] of the same compound?
Its value is 2 h.

And the “Period of Steady State Flux” value [9, 14]?
Its value is 6.24 h.

What about the “Steady State Flux” value [9, 14] of the same compound?
Its value is 2.01 ng equiv./cm^2/h.

And the “inhibition or induction of cytochrome P450 isoforms” value [10]?
Its value is “does not inhibit or induce human cytochrome P450 isoforms”.

What about the off-target activity (receptors and enzymes) of the same compound?
The off-target activity was “did not inhibit or stimulate receptors and enzymes”.

What about the “doses not associated with fetal developmental effects” value (rats) of the same compound?
Its value is “up to 5 μg/kg/day”.

What about the “effect on endothelial cells at subclinical concentrations” value (human endothelial cells) of the same compound?
The value was “stimulates PKC dependent activation of human endothelial cells to support neutrophil adhesion”.

And the mutagenicity (In vitro Ames test)?
The mutagenicity was “not mutagenic”.

What about the “release of inflammatory mediators in mouse skin” value (mouse skin) of the same compound?
Its value is “induced the release of inflammatory mediators IL-8/MIP-2 and TNF-α resulting in neutrophil recruitment and activation”.

What about the “immune response after intratumoral injection” value (tumors) of the same compound?
The value was “stimulated a tumor-specific CD8+T cell response with anti-tumor activity against distant secondary tumors”.

What about the “toxicity for skin cancer cells” value (skin cancer cells) of the same compound?
Its value is “highly toxic”.

What about the effect on keratinocytes [11] of the same compound?
Its effect on keratinocytes is “cytokine release and specific PKC-mediated neutrophil activation”.

Which “steady state flux compared to human skin, fold greater” value ([7]; WI rat skin vs human skin) does the source give for C/C=C(/C)C(=O)O[C@H]1C(C)=C[C@]23C(=O)[C@@H](C=C(CO)[C@@H](O)[C@]12O)[C@H]1C(C[C@H]3C)C1(C)C (stereo in doubt) [[^3H]-ingenol mebutate] here?
The value was about 15.1 fold.

What about the “dermal delivery compared to human skin, fold greater” value (“dermal delivery … fold greater” for short) [7, 15] of the same compound?
The value was about 9.2 fold.

And the “total absorption compared to human skin, fold greater” value [7, 15]?
The value was about 13.8 fold.

And the maximum hourly flux ([7]; WI rat skin, gel ca 0.05% w/w)?
Its maximum hourly flux is 6.12 ng equiv./cm^2/h.

And the “time post dose at which maximum flux was achieved” value (shortened to “time post dose”) ([7]; WI rat skin, gel ca 0.05% w/w)?
Its value is 16 h.

And the “Lag Time” value [7, 13]?
The value was about 3 h.

And the “Period of Steady State Flux” value [7, 13]?
Its value is 8 to 24 h.

What about the “Steady State Flux” value [7, 13] of the same compound?
The value was 5.87 ng equiv./cm^2/h.

What about the “Unabsorbed Dose” value ([7]; Wistar Rat skin, gel ca 0.05% w/w, 24 h exposure) of the same compound?
Its value is 90.31 % Applied Dose.

What about the “Lag Time” value [8] of the same compound?
Its value is about 1 h.

What about the “Period of Steady State Flux” value [8] of the same compound?
Its value is 4 to 24 h.

And the “Steady State Flux” value [8]?
The value was 0.39 ng equiv./cm^2/h.

What about the maximum hourly flux [8] of the same compound?
Its maximum hourly flux is 0.44 ng equiv./cm^2/h.

And the “time post dose” value [8]?
Its value is 16 h.

And the “Unabsorbed Dose” value ([8]; 24 h exposure)?
Its value is 101.09 % Applied Dose.

What about the “steady state flux compared to human skin, fold greater” value ([9]; SD rat skin vs human skin) of the same compound?
The value was about 5.2 fold.

What about the “dermal delivery … fold greater” value [9, 16] of the same compound?
The value was about 5.1 fold.

What about the “total absorption compared to human skin, fold greater” value [9, 16] of the same compound?
Its value is about 4.9 fold.

And the maximum hourly flux ([9]; SD rat skin, gel ca 0.05% w/w)?
The maximum hourly flux was 2.09 ng equiv./cm^2/h.

And the “Lag Time” value [9, 14]?
The value was about 2 h.

And the “Period of Steady State Flux” value [9, 14]?
The value was 6 to 24 h.

What about the “Steady State Flux” value [9, 14] of the same compound?
The value was 2.01 ng equiv./cm^2/h.

And the “Unabsorbed Dose” value ([9]; Sprague Dawley Rat skin, gel ca 0.05% w/w, 24 h exposure)?
Its value is 94.40 % Applied Dose.

What about the “Unabsorbed Dose” value ([12]; Mini-Pig skin, gel ca 0.05% w/w, 24 h exposure) of the same compound?
The value was 93.35 % Applied Dose.

What about the “Lag Time” value [12, 17] of the same compound?
Its value is “no apparent lag time”.

And the “Steady State Flux” value [12, 17]?
Its value is “no apparent lag time or steady state flux observed”.

What about the “dermal delivery … fold greater” value [12, 18] of the same compound?
Its value is about 7.9 fold.

And the “total absorption compared to human skin, fold less” value [12, 18]?
The value was about 1.4 fold.

And the maximum hourly flux [12, 19]?
Its maximum hourly flux is 0.80 ng equiv./cm^2/h.

What about the “time post dose” value [12, 19] of the same compound?
Its value is 1 h.
